From patent publication US9707233B2, “Heterocyclylamines as PI3K inhibitors” (Incyte Corporation, priority 2011, dated 2017)

What follows are molecules tested against PI3Kδ (p110δ/p85α) (Homo sapiens (Human), UniProt O00329) (assay: PI3Kδ scintillation proximity assay (Example A3)). Conditions: 20 μM ATP, 20 μM PIP2, 4 nM PI3Kδ; read-out: PI3Kδ SPA IC50.
Assay type: biochemical
Procedure, shortened: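 IC50 derived by fitting percent control activity against log inhibitor concentration. Radiolabelled product was measured by scintillation counting on WGA SPA beads after overnight shaking. The kinase reaction used 4 nM p110δ/p85α, 20 μM ATP (with [γ-33P]ATP) and 20 μM PIP2 at pH 6.7 and room temperature, with 0.5% DMSO final.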

Chain of PI3Kδ (p110δ/p85α) (O00329 whole entry): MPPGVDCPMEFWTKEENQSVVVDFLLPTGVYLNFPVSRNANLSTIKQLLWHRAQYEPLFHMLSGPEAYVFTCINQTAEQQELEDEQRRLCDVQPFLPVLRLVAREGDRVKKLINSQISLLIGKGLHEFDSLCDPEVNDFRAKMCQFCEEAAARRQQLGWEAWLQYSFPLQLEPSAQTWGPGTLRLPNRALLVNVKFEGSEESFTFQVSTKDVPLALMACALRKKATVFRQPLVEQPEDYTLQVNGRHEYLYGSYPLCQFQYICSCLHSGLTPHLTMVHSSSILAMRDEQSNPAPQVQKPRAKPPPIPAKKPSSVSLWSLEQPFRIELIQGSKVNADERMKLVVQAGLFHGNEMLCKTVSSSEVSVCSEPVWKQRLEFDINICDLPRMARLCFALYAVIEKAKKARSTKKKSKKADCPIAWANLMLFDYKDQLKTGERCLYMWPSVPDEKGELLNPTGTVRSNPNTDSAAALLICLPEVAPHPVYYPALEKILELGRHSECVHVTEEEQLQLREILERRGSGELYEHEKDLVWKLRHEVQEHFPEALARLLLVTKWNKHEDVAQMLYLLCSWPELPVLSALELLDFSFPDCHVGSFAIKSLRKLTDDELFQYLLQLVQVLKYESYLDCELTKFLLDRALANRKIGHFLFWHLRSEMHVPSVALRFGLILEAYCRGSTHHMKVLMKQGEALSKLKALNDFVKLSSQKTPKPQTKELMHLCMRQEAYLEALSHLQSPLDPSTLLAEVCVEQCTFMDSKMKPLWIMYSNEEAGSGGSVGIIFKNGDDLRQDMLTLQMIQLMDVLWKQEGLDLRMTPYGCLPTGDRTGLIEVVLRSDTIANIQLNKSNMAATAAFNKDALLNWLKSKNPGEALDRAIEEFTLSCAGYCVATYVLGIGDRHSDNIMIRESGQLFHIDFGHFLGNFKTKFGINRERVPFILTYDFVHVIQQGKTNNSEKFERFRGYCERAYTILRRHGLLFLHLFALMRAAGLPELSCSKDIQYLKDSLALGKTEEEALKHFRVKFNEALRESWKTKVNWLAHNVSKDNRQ
Chain of PI3Kδ (p110δ/p85α) (P27986 whole entry partner): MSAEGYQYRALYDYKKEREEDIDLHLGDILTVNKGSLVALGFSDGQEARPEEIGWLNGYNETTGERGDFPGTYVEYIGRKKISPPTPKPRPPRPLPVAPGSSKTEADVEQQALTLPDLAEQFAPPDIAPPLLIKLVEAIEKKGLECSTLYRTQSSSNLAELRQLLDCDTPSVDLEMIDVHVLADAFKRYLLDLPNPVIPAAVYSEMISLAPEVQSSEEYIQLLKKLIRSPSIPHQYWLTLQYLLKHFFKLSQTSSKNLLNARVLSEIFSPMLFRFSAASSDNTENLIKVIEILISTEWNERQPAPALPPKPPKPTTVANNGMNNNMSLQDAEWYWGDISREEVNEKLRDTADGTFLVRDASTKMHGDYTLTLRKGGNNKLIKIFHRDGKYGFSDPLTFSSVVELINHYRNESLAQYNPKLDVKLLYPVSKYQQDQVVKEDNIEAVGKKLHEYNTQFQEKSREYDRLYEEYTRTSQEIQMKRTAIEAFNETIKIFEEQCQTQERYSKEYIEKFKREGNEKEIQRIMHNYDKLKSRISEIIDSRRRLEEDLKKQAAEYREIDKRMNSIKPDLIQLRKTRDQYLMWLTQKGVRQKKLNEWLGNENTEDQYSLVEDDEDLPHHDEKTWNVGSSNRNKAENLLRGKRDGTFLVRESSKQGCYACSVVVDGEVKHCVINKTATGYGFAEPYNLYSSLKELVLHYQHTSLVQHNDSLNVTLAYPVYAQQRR

`COc1c(C(C)n2nc(C)c3c(N)ncnc32)cc(Cl)c(C)c1-c1cncc(C(=O)N2CCC(O)CC2)c1` (single isomer, unassigned) [Example 176, 1-[(5-{3-[1-(4-amino-3-methyl-1H-pyrazolo[3,4-d]pyrimidin-1-yl)ethyl]-5-chloro-2-methoxy-6-methylphenyl}pyridin-3-yl)carbonyl]piperidin-4-ol] and `COc1c(C(C)n2nc(C)c3c(N)ncnc32)cc(Cl)c(C)c1-c1cncc(C(=O)N2CC(C#N)C2)c1` (centres unmarked) [Example 177, 1-[(5-{3-[1-(4-amino-3-methyl-1H-pyrazolo[3,4-d]pyrimidin-1-yl)ethyl]-5-chloro-2-methoxy-6-methylphenyl}pyridin-3-yl)carbonyl]azetidine-3-carbonitrile] cannot be ordered by IC50: no more than 10 nM for the first, no more than 10 nM for the second.

`CCOc1c(C(C)n2nc(C)c3c(N)ncnc32)cc(Cl)c(C#N)c1C1CN(CC)C1` (centres unmarked) [Example 214, 4-[1-(4-Amino-3-methyl-1H-pyrazolo[3,4-d]pyrimidin-1-yl)ethyl]-6-chloro-3-ethoxy-2-(1-ethylazetidin-3-yl)benzonitrile] and `CCOc1c(C(C)n2nc(C)c3c(N)ncnc32)cc(Cl)c(C#N)c1C1CN(CCO)C1` (single isomer, unassigned) [Example 219, 4-[1-(4-Amino-3-methyl-1H-pyrazolo[3,4-d]pyrimidin-1-yl)ethyl]-6-chloro-3-ethoxy-2-[1-(2-hydroxyethyl)azetidin-3-yl]benzonitrile] cannot be ordered by IC50: no more than 10 nM for the first, no more than 10 nM for the second.

`COc1c(C(C)n2nc(C)c3c(N)ncnc32)cc(Cl)c(C)c1-c1ccnc(N(C)C)c1` (single isomer, unassigned) [Example 186, 1-(1-(5-chloro-3-(2-(dimethylamino)pyridin-4-yl)-2-methoxy-4-methylphenyl)ethyl)-3-methyl-1H-pyrazolo[3,4-d]pyrimidin-4-amine] and `COc1c(C(C)n2nc(C)c3c(N)ncnc32)cc(Cl)c(C)c1-c1cncnc1` (single isomer, unassigned) [Example 168, 1-(1-(5-chloro-2-methoxy-4-methyl-3-(pyrimidin-5-yl)phenyl)ethyl)-3-methyl-1H-pyrazolo[3,4-d]pyrimidin-4-amine] cannot be ordered by IC50: no more than 10 nM for the first, no more than 10 nM for the second.

`CCOc1c(C(C)n2nc(-c3ccn(C)n3)c3c(N)ncnc32)cc(Cl)c(C)c1-c1ccc(C(=O)N(C)C)nc1` (centres unmarked) [Example 50, 5-(3-{1-[4-amino-3-(1-methyl-1H-pyrazol-3-yl)-1H-pyrazolo[3,4-d]pyrimidin-1-yl]ethyl}-5-chloro-2-ethoxy-6-methylphenyl)-N,N-dimethylpyridine-2-carboxamide bis(trifluoroacetate)] and `CCOc1c(C(C)n2nc(C3CC3)c3c(N)ncnc32)cc(Cl)c(C)c1-c1ccc(C(=O)N(C)C)nc1` (racemic) [Example 53, 5-{3-[1-(4-amino-3-cyclopropyl-1H-pyrazolo[3,4-d]pyrimidin-1-yl)ethyl]-5-chloro-2-ethoxy-6-methylphenyl}-N,N-dimethylpyridine-2-carboxamide bis(trifluoroacetate)] cannot be ordered by IC50: no more than 10 nM for the first, no more than 10 nM for the second.

`COc1c(C(C)n2nc(C)c3c(N)ncnc32)cc(Cl)c(F)c1C1CN(CC(C)(C)O)C1` (racemic) [Example 70, 1-(3-{3-[1-(4-Amino-3-methyl-1H-pyrazolo[3,4-d]pyrimidin-1-yl)ethyl]-5-chloro-6-fluoro-2-methoxyphenyl}azetidin-1-yl)-2-methylpropan-2-ol] and `CCN1CC(c2c(Cl)c(Cl)cc(C(C)n3nc(C)c4c(N)ncnc43)c2OC)C1` (single isomer, unassigned) [Example 298, 1-{1-[4,5-Dichloro-3-(1-ethylazetidin-3-yl)-2-methoxyphenyl]ethyl}-3-methyl-1H-pyrazolo[3,4-d]pyrimidin-4-amine] cannot be ordered by IC50: no more than 10 nM for the first, no more than 10 nM for the second.

`CCS(=O)(=O)N1CC(c2c(C#N)c(Cl)cc(C(C)n3nc(C)c4c(N)ncnc43)c2OC)C1` (single isomer, unassigned) [Example 286, 4-[1-(4-Amino-3-methyl-1H-pyrazolo[3,4-d]pyrimidin-1-yl)ethyl]-6-chloro-2-[1-(ethylsulfonyl)azetidin-3-yl]-3-methoxybenzonitrile] and `CCOc1c(C(C)n2nc(C)c3c(N)ncnc32)cc(Cl)c(C#N)c1C1CN(C(=O)C(C)C)C1` (single isomer, unassigned) [Example 244, 4-[1-(4-Amino-3-methyl-1H-pyrazolo[3,4-d]pyrimidin-1-yl)ethyl]-6-chloro-3-ethoxy-2-(1-isobutyrylazetidin-3-yl)benzonitrile] cannot be ordered by IC50: no more than 10 nM for the first, no more than 10 nM for the second.

`COc1c(C(C)n2nc(C)c3c(N)ncnc32)cc(C#N)c(C)c1-c1ccnc(C(=O)N(C)CCO)c1` (racemic) [Example 40, 4-{3-[1-(4-amino-3-methyl-1H-pyrazolo[3,4-d]pyrimidin-1-yl)ethyl]-5-cyano-2-methoxy-6-methylphenyl}-N-(2-hydroxyethyl)-N-methylpyridine-2-carboxamide] and `CCOc1c(C(C)n2nc(C)c3c(N)ncnc32)cc(Cl)c(C)c1-c1ccnc(C(=O)N(C)CCO)c1` (single isomer, unassigned) [Example 202, 4-(3-(1-(4-amino-3-methyl-1H-pyrazolo[3,4-d]pyrimidin-1-yl)ethyl)-5-chloro-2-ethoxy-6-methylphenyl)-N-(2-hydroxyethyl)-N-methylpicolinamide] cannot be ordered by IC50: 10 to 50 nM for the first, no more than 10 nM for the second.

`CCOc1c(C(C)n2nc(C)c3c(N)ncnc32)cc(Cl)c(C)c1-c1cnn(CC(=O)N(C)C)c1` (single isomer, unassigned) [Example 205, 2-(4-(3-(1-(4-amino-3-methyl-1H-pyrazolo[3,4-d]pyrimidin-1-yl)ethyl)-5-chloro-2-ethoxy-6-methylphenyl)-1H-pyrazol-1-yl)-N,N-dimethylacetamide] and `CCOc1c(C(C)n2nc(C)c3c(N)ncnc32)cc(Cl)c(C)c1-c1cnn(CC(=O)NC)c1` (single isomer, unassigned) [Example 204, 2-(4-(3-(1-(4-amino-3-methyl-1H-pyrazolo[3,4-d]pyrimidin-1-yl)ethyl)-5-chloro-2-ethoxy-6-methylphenyl)-1H-pyrazol-1-yl)-N-methylacetamide] cannot be ordered by IC50: no more than 10 nM for the first, no more than 10 nM for the second.

`CCOc1c(C(C)n2nc(C)c3c(N)ncnc32)cc(C)c(C#N)c1C1CN(CC(C)(C)O)C1` (single isomer, unassigned) [Example 321, 4-[1-(4-amino-3-methyl-1H-pyrazolo[3,4-d]pyrimidin-1-yl)ethyl]-3-ethoxy-2-[1-(2-hydroxy-2-methylpropyl)azetidin-3-yl]-6-methylbenzonitrile] and `CCOc1c(C(C)n2nc(C)c3c(N)ncnc32)cc(Cl)c(F)c1C1CN(CC(N)=O)C1` (centres unmarked) [Example 148, 2-(3-{3-[1-(4-Amino-3-methyl-1H-pyrazolo[3,4-d]pyrimidin-1-yl)ethyl]-5-chloro-2-ethoxy-6-fluorophenyl}azetidin-1-yl)acetamide] cannot be ordered by IC50: no more than 10 nM for the first, no more than 10 nM for the second.

`COc1c(C(C)n2nc(C(F)F)c3c(N)ncnc32)cc(C#N)c(F)c1C1CN(CCO)C1` (racemic) [Example 78, 5-{1-[4-Amino-3-(difluoromethyl)-1H-pyrazolo[3,4-d]pyrimidin-1-yl]ethyl}-2-fluoro-3-[1-(2-hydroxyethyl)azetidin-3-yl]-4-methoxybenzonitrile] and `COc1c(C(C)n2nc(C)c3c(N)ncnc32)cc(Cl)c(Cl)c1C1CN(C(C)C)C1` (single isomer, unassigned) [Example 299, 1-{1-[4,5-Dichloro-3-(1-isopropylazetidin-3-yl)-2-methoxyphenyl]ethyl}-3-methyl-1H-pyrazolo[3,4-d]pyrimidin-4-amine] cannot be ordered by IC50: no more than 10 nM for the first, no more than 10 nM for the second.

`COc1c(C(C)n2nc(C)c3c(N)ncnc32)cc(Cl)c(C)c1C1CN(C(=O)C(C)(C)O)C1` (single isomer, unassigned) [Example 123, 1-(3-{3-[1-(4-Amino-3-methyl-1H-pyrazolo[3,4-d]pyrimidin-1-yl)ethyl]-5-chloro-2-methoxy-6-methylphenyl}azetidin-1-yl)-2-methyl-1-oxopropan-2-ol] and `COc1c(C(C)n2nc(C)c3c(N)ncnc32)cc(Cl)c(C)c1C1CC1` (single isomer, unassigned) [Example 192, 1-[1-(5-Chloro-3-cyclopropyl-2-methoxy-4-methylphenyl)ethyl]-3-methyl-1H-pyrazolo[3,4-d]pyrimidin-4-amine] cannot be ordered by IC50: no more than 10 nM for the first, 10 to 50 nM for the second.

Compared with `CCOc1c(C(C)n2nc(C)c3c(N)ncnc32)cc(Cl)c(F)c1C1CNC(=O)O1` (single isomer, unassigned) [Example 358, 5-{3-[1-(4-amino-3-methyl-1H-pyrazolo[3,4-d]pyrimidin-1-yl)ethyl]-5-chloro-2-ethoxy-6-fluorophenyl}-1,3-oxazolidin-2-one], `COc1c(C(C)n2nc(C)c3c(N)ncnc32)cc(Cl)c(C)c1C1CN(C(=O)c2cnoc2C)C1` (single isomer, unassigned) [Example 120, 1-[1-(5-Chloro-2-methoxy-4-methyl-3-{1-[(5-methylisoxazol-4-yl)carbonyl]azetidin-3-yl}phenyl)ethyl]-3-methyl-1H-pyrazolo[3,4-d]pyrimidin-4-amine] is lower in IC50: greater than 500 nM for the first, no more than 10 nM for the second.

`COc1c(C(C)n2nc(C)c3c(N)ncnc32)cc(Cl)c(C)c1-c1cnn(CCO)c1` (single isomer, unassigned) [20 (1st peak), 2-(4-(3-(1-(4-Amino-3-methyl-1H-pyrazolo[3,4-d]pyrimidin-1-yl)ethyl)-5-chloro-2-methoxy-6-methylphenyl)-1H-pyrazol-1-yl)ethanol] and `COc1c(C(C)n2ccc(=O)c3c(N)ncnc32)cc(Cl)c(C)c1-c1cncc(F)c1` (racemic) [Example 31, 4-Amino-8-{1-[5-chloro-3-(5-fluoropyridin-3-yl)-2-methoxy-4-methylphenyl]ethyl}pyrido[2,3-d]pyrimidin-5(8H)-one bis(trifluoroacetate)] cannot be ordered by IC50: no more than 10 nM for the first, no more than 10 nM for the second.
